This is an account of results in patent US20090105172A1, “Stabilized Aptamers to PSMA and Their Use as Prostate Cancer Therapeutics” (priority 2005, published 2009).

The series addresses PSMA NAALADase activity (Homo sapiens, UniProt Q04609). In words: NAALADase inhibition assay. It counts as biochemical. As for the experimental part: These point mutant constructs were assessed for activity in terms of inhibition of PSMA NAALADase activity. The NAALADase assay was performed in 96 well format. PSMA aptamers were serially diluted in 1× reaction buffer (40 mM Tris-HCl, pH 7.4, 0.1 mM ZnSO4, 0.1 mg/in L BSA) in a standard 96 well plate to be tested at a final concentration range from 30 pM to 1 μM. The enzyme was prepared by diluting 30 μL of 100 nM PSMA into 8 mL of reaction buffer, and kept cool on ice. The substrate was prepared by adding 19 μl of NAAG [Glutamate-3,4-^3H], 50.8 Ci/mmol, 19.7 μM (Perkin-Elmer, Wellesley, Mass., NET1082) into 2.2 mL of reaction buffer.
Following preparation of all reagents, 4 μl of each serially diluted aptamer was added to a separate 96 well plate (the reaction plate). 76 μl of diluted enzyme was added to the corresponding wells containing aptamer. 80 μl of reaction buffer was added to one column of wells to serve as a background control. The diluted substrate and reaction plate were then moved to a room at 37° C. and allowed to equilibrate for 10 minutes. After temperature equilibration, 20 μl of the prepared substrate was added to each well using a 12 channel pipet for a final volume of 100 μl/well, and a final concentration of […] enzyme and 30 nM substrate per well. A column of wells containing enzyme and substrate only was used as a high control. The aptamer/enzyme/substrate reaction was incubated at 37° C. for 15 minutes, and stopped by the addition of 100 μl of quench buffer (100 mM sodium phosphate, pH 7.4, 2 mM EDTA).
To separate the cleavage products, […] and Glutamate, from the substrate, an AG 1-X8, 200-400 mesh, formate resin (BioRad, Hercules, Calif., # 140-1454) was used. The resin was prepared by forming a 1:1 slurry in H2O, and adding 140 μl per 96 well using a Multiscreen filter plate (Multiscreen, 1.2 μm filter plates (Millipore, Billerica, Mass., # MABVN1250)). […] The plate was sealed and read using a Packard Topcount Microplate Scintillation Counter. […]

Chain of PSMA NAALADase activity (Q04609 with tags, fused parts or gaps limits assumed): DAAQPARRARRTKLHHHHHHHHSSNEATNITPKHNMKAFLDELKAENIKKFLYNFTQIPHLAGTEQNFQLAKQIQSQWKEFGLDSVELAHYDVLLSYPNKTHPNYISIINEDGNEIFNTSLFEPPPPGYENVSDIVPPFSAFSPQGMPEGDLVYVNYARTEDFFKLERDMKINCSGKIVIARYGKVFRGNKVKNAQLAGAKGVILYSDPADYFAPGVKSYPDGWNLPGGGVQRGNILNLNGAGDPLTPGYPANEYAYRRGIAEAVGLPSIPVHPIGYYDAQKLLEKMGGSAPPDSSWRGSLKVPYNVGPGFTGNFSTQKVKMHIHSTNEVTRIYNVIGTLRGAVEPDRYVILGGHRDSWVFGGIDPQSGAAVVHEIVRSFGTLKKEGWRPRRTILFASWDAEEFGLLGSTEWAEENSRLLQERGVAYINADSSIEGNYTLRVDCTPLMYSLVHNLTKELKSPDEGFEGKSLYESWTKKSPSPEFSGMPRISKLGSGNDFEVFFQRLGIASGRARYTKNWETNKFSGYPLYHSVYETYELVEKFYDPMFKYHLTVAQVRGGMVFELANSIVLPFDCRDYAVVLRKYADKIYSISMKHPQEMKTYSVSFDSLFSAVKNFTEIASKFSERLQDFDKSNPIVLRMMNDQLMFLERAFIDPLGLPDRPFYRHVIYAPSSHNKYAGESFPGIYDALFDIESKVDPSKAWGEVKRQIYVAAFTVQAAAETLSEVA

As for “GGAGGAfCfCGAAAAAGAfCfCfUGAfCfUfUfCfUAfUAfCfUAAGfUfCfUAfCGfUfUfCfCfUfCfCA (GGAGGACCGAAAAAGACCUGACUUCUAUACUAAGUCUACGUUCCUCCA; 2'-fluoro at 7, 8, 17, 18, 19, 22, 23, 24, 25, 26, 28, 30, 31, 35, 36, 37, 39, 41, 42, 43, 44, 45, 46, 47, other sugars and backbone not given here) [ARC591, 48-nt minimer of A9]”, the IC50 (read-out: apparent IC50, inhibition of NAALADase activity) is 6.7 nM. The “activity in the NAALADase inhibition assay” value (relative to parent) is on record as “retained full functional activity”.
